The test system of this test is AsPC1, BxPC3, PANC1, MIAPaCa2, PO2, A375VR, SKMEL-28, HCT-116, 4T1, U87, U251, T98G, CT2A cells. Nature of the test: Cytotoxicity studies, sulforhodamine B (SRB) assay. As to conditions: range over all the cell lines, read-out: IC50 (cell survival). The test is classed as cell-based, human and murine. The procedure: FIGS. 1A to 1E show the effect of Pimavanserin tartrate suppresses the cell survival of pancreatic cancer cells. FIGS. 1F to 1G show the effect of pimavanserin tartrate suppresses the cell survival of melanoma cells. […] In the figures, the following cancer cells were evaluated: AsPC1 cells (FIG. 1A), BxPC3 cells (FIG. 1B), PANC1 cells (FIG. 1C), MIAPaCa2 cells (FIG. 1D), PO2 cells (FIG. 1E), A375VR cells (FIG. 1F), SKMEL-28 cells (FIG. 1G), HCT-116 cells (FIG. 1H), 4T1 cells (FIG. 1I), U87 cells (FIG. 1J), U251 cells (FIG. 1K), T98G vells (FIG. 1L), CT2A cells (FIG. 1M) which were treated with varied concentrations of pimavanserin tartrate for 24, 48 and 72 hours. Cell survival was determined by sulforhodamine B assay to estimate the IC50 values. The studies were repeated independently for three times with 4 replicates in each test. Values are plotted as mean±SD and the statistical significance level was considered as p<0.05.
Cell culture. Human pancreatic cancer cell lines AsPC1, BxPC3, PANC1, MIAPaCa2 cells, SKMEL-28 human melanoma cells, U87, U251, T98G human glioblastoma cells, and human colon cancer cell line HCT-116 were purchased from ATCC (Rockville, Md.). CT2A murine glioblastoma cells was a kind gift from Dr. Jill Edgar, Boston College, Boston. Cell lines were authenticated by STR analysis at TTUHSC core facilities (Lubbock, Tex.). […]
Cytotoxicity studies. The cytotoxic effects of pimavanserin tartrate in AsPC1, BxPC3, PANC1, MIAPaCa2, PO2, A375VR, SKMEL-28, HCT-116, 4T1, U87, U251, T98G, CT2A cells were determined by sulforhodamine B (SRB) assay. […] The optical density was measured using plate reader (Biotek instruments) as described by the present inventors (12).
Pimavanserin inhibited the proliferation of cancer cells, which included pancreatic cancer, melanoma, colon cancer, glioblastoma and breast cancer cells. The cytotoxic effects of pimavanserin were evaluated by SRB assay in the above mentioned cancer cells. […]
(The SRB assay estimates cell density from bound dye.)

Molecules are shown by their SMILES. Read-outs that look alike come from different tables or passages of the source.

Turning to `CC(C)COc1ccc(CNC(=O)N(Cc2ccc(F)cc2)C2CCN(C)CC2)cc1` [pimavanserin, N-(4-fluorophenylmethyl)-N-(1-methylpiperidin-4-yl)-N′-(4-(2-methylpropyloxy)phenylmethyl)carbamide], the IC50 fell in the range of 7 to 15 µM (24 hours), 3 to 8 µM (48 hours) and 3 to 8 µM (72 hours).

As a reminder, the IC50 is the concentration that inhibits the measured activity by half.

The record behind these values is US11357766B2, “Compositions and methods for treating cancer” (Texas Tech University System, priority 2017, dated 2022).
